Source: ChEMBL document CHEMBL1828555, “Primary amino acid derivatives: substitution of the 4'-N'-benzylamide site in (R)-N'-benzyl 2-amino-3-methylbutanamide, (R)-N'-benzyl 2-amino-3,3-dimethylbutanamide, and (R)-N'-benzyl 2-amino-3-methoxypropionamide provides potent anticonvulsants with pain-attenuating properties” (J Med Chem, 2011)
Active and inactive are the calls of the source. The calls are words filed in the database; no cut-off is given here.

Assays:
[1] = test system: Mus musculus; assay: Neurotoxicity in ip dosed albino CF1 mouse assessed as time of peak effect for median neurological impairing; assay type: toxicity, organism-based; conditions: in vivo
[2] = test system: Mus musculus; assay: Anticonvulsant activity in ip dosed albino CF1 mouse assessed as protection against maximal electroshock-induced seizure after 30 mins; assay type: functional; conditions: 0.5 h
[3] = test system: Rattus norvegicus; assay: Anticonvulsant activity in po dosed albino Sprague-Dawley rat assessed as protection against maximal electroshock seizure; assay type: functional
[4] = test system: Rattus norvegicus; assay: Toxicity in po dosed albino Sprague-Dawley rat assessed as time of peak effect for behavioural toxicity; assay type: organism-based; conditions: in vivo
[5] = test system: Mus musculus; assay: Anticonvulsant activity in ip dosed albino CF1 mouse assessed as time of peak effect for protection against maximal electroshock-induced seizure; assay type: functional
[6] = test system: Mus musculus; assay: Anticonvulsant activity in ip dosed albino CF1 mouse assessed as protection against subcutaneous pentylenetetrazol-induced seizure; assay type: functional, organism-based
[7] = test system: Rattus norvegicus; assay: Anticonvulsant activity in po dosed albino Sprague-Dawley rat assessed as time of peak effect for protection against maximal electroshock seizure; assay type: functional
[8] = Neurotoxicity in ip dosed albino CF1 mouse assessed as median neurological impairing dose after 30 mins; assay type: toxicity, organism-based; conditions: in vivo
[9] = Toxicity in po dosed albino Sprague-Dawley rat assessed as behavioural toxicity; assay type: organism-based; conditions: in vivo
[10] = test system: Mus musculus; assay: Analgesic activity in ip dosed albino CF1 mouse assessed as reduction of formalin-induced neuropathic pain after 30 mins; assay type: functional; conditions: 0.5 h
[11] = test system: Mus musculus; assay: Anticonvulsant activity in ip dosed albino CF1 mouse assessed as protection against 6 Hz psychomotor seizure after 30 mins; assay type: functional; conditions: 0.5 h
[12] = test system: Rattus norvegicus; assay: Protective index, ratio of TD50 for po dosed albino Sprague-Dawley rat to ED50 for po dosed albino Sprague-Dawley rat by maximal electroshock test; assay type: functional
[13] = test system: Mus musculus; assay: Analgesic activity in ip dosed albino CF1 mouse assessed as time of peak effect for reduction of formalin-induced neuropathic pain; assay type: functional
[14] = test system: Mus musculus; assay: Protective index, ratio of TD50 for ip dosed albino CF1 mouse to ED50 for ip dosed albino CF1 mouse by maximal electroshock test; assay type: functional
[15] = test system: Mus musculus; assay: Anticonvulsant activity in ip dosed albino CF1 mouse assessed as time of peak effect for protection against 6 Hz psychomotor seizure; assay type: functional
[16] = test system: Mus musculus; assay: Anticonvulsant activity in ip dosed 6 Hz psychomotor seizure model of NMRI mouse assessed as protection against seizure after 30 minutes; assay type: functional; conditions: 0.5 h
[17] = test system: Mus musculus; assay: Analgesic activity in ip dosed NMRI mouse assessed as reduction in formalin-induced neuropathic pain after 30 mins; assay type: functional; conditions: 0.5 h
[18] = test system: Mus musculus; assay: Protective index, ratio of TD50 for ip dosed NMRI mouse to ED50 for ip dosed NMRI mouse by maximal electroshock test; assay type: functional
[19] = test system: Mus musculus; assay: Anticonvulsant activity in ip dosed NMRI mouse assessed as protection against maximal electroshock seizure after 30 mins; assay type: functional; conditions: 0.5 h
[20] = Neurotoxicity in ip dosed NMRI mouse assessed as median neurological impairing dose after 30 mins by rotarod test; assay type: toxicity, organism-based; conditions: in vivo

Row | Structure (SMILES) | Time [1] [h] | ED50 [2] [mg/kg] | ED50 [3] [mg/kg] | Time [4] [h] | Time [5] [h] | Activity [6] | Time [7] [h] | TD50 at 0.5 h [8] [mg/kg] | TD50 [9] [mg/kg] | ED50 [10] [mg/kg] | ED50 [11] [mg/kg] | Ratio TD50/ED50 [12] | Time [13] [h] | Ratio TD50/ED50 [14] | Time [15] [h] | ED50 [16] [mg/kg] | ED50 [17] [mg/kg] | Ratio TD50/ED50 [18] | ED50 [19] [mg/kg] | TD50 at 0.5 h [20] [mg/kg]
1 | Cc1ccc(CNC(=O)[C@H](N)C(C)C)cc1 | 0.5 | > 300 | 50 | 0.25 | 0.5 | inactive | 1 | > 300 | > 50 |  |  |  |  |  |  |  |  |  |  | 
2 | CC(C)[C@H](N)C(=O)NCc1ccccc1 |  | > 300 |  |  |  | inactive |  | > 300 |  |  |  |  |  |  |  |  |  |  |  | 
3 | CC(C)[C@@H](N)C(=O)NCc1ccc(OC(F)(F)F)cc1 | 0.25 | 16 | 18 |  | 0.25 | inactive | 1 | 84 | > 500 | 16 | 28 | >27 | 0.25 | 5.3 | 0.5 |  |  |  |  | 
4 | CC(C)[C@@H](N)C(=O)NCc1ccc(-c2ccccc2)cc1 | 0.5 | 30 | 30 | 0.25 | 0.5 | inactive | 2 | > 300 | > 30 |  |  |  |  |  |  |  |  |  |  | 
5 | CC(C)[C@@H](N)C(=O)NCc1ccc(C(F)(F)F)cc1 | 0.25 | 14 | 13 |  | 0.5 | inactive | 1 | 57 | > 500 |  | 30 | >38 |  | 4.1 | 0.5 |  |  |  |  | 
6 | CC(C)[C@@H](N)C(=O)NCc1ccc(COc2cccc(F)c2)cc1 | 0.5 | 18 | < 30 | 0.25 | 0.25 | inactive | 0.5 | 71 | > 30 |  | 30 |  |  |  | 0.5 | > 110 | 30 | 3.9 | 12 | 
7 | COC[C@H](N)C(=O)NCc1ccccc1 |  |  |  |  |  | inactive |  |  |  |  |  |  |  |  |  | > 70 | 120 | 1 | 64 | 63
8 | CC(C)(C)[C@@H](N)C(=O)NCc1ccc(OC(F)(F)F)cc1 | 0.25 | 28 | 23 | 0.25 | 1 | inactive | 2 | 73 | > 30 |  |  |  |  | 2.6 |  |  |  |  |  | 
9 | CC(C)(C)[C@@H](N)C(=O)NCc1ccc(-c2ccccc2)cc1 | 0.5 | 30 |  |  | 0.5 | inactive |  | 30 |  |  |  |  |  |  |  |  |  |  |  | 
10 | O=C1NC(=O)C(c2ccccc2)(c2ccccc2)N1 [PHENYTOIN] | 0.25 |  |  |  | 2 |  | 4 | 27 | > 3000 |  |  |  |  |  |  |  |  |  |  | 
11 | C[C@H](N)C(=O)NCc1ccccc1 |  | > 300 |  |  |  |  |  | > 300 |  |  |  |  |  |  |  |  |  |  |  | 
12 | CC(C)(C)[C@@H](N)C(=O)NCc1ccc(OCc2cccc(F)c2)cc1 | 0.5 | 30 | > 30 | 0.25 | 0.5 | inactive | 0.25 | 300 | > 30 |  |  |  |  |  |  |  |  |  |  | 
13 | CCCC(CCC)C(=O)[O-].[Na+] [VALPROATE SODIUM] | 0.25 | 270 |  | 0.5 | 0.5 |  | 0.5 |  |  |  |  |  |  |  |  |  |  |  |  | 
14 | CC(C)(C)[C@@H](N)C(=O)NCc1ccc(Cl)cc1 | 0.5 | 25 | 30 | 0.25 | 0.25 | inactive | 0.25 | 84 | > 30 | 25 | < 100 |  | 0.25 | 3.4 | 0.25 |  |  |  |  | 
15 | C[C@@H](N)C(=O)NCc1ccc(OCc2cccc(F)c2)cc1 |  |  |  |  |  | inactive |  |  |  |  |  |  |  |  |  | > 120 | > 37 |  | 17 | 
16 | COC[C@@H](N)C(=O)NCc1ccc(OCc2cccc(F)c2)cc1 | 0.25 | 15 | 13 |  | 0.5 | inactive | 0.5 | 58 | > 500 |  | < 50 | >38 |  | 3.9 | 0.5 |  |  |  |  | 
17 | COC[C@@H](NC(C)=O)C(=O)NCc1ccccc1 [LACOSAMIDE] | 0.25 |  |  |  | 0.5 |  | 2 | 27 | > 500 |  | 10 |  |  |  |  | 10 | 15 |  | 3.3 | 19
18 | CC(C)(C)[C@@H](N)C(=O)NCc1ccccc1 | 0.25 | 14 | 11 |  | 0.25 | inactive | 0.25 | 66 | > 500 |  | 30 | >45 |  | 4.7 | 0.25 | > 71 | > 22 | 4.7 | 13 | 
19 | CC(C)[C@@H](N)C(=O)NCc1ccc(Cl)cc1 | 0.25 | 22 |  |  | 0.25 | inactive |  | 74 |  | 22 | 50 |  | 0.25 | 3.4 | 0.25 |  |  |  |  | 
20 | COC[C@@H](N)C(=O)NCc1ccccc1.Cl | 0.25 | 48 |  |  | 0.25 | inactive |  | 30 |  |  |  |  |  |  |  | > 67 | > 67 | >3.5 | 34 | > 120
21 | CC(C)[C@H](N)C(=O)NCc1ccc(COc2cccc(F)c2)cc1 |  | 30 | > 30 | 0.25 |  | inactive | 0.25 | 100 | > 30 |  |  |  |  |  |  |  |  |  |  | 
22 | CCC1(c2ccccc2)C(=O)NC(=O)NC1=O [PHENOBARBITAL] | 0.5 |  |  | 0.5 | 1 |  | 5 | 66 |  |  |  |  |  | 3 |  |  |  |  |  | 
23 | COC[C@@H](N)C(=O)NCc1ccc(C(F)(F)F)cc1.Cl |  |  |  |  |  | inactive |  |  |  |  |  |  |  |  |  | 55 | > 31 | 2.5 | 19 | 48
24 | C[C@@H](N)C(=O)NCc1ccccc1 |  | 10 |  |  |  |  |  | 100 |  | 69 |  |  |  |  |  |  |  |  |  | 
25 | CC(C)(C)[C@H](N)C(=O)NCc1ccccc1 | 0.25 | 42 |  |  | 0.25 | inactive |  | 105 |  |  |  |  |  |  |  |  |  | 2.5 |  | 
26 | COC[C@H](N)C(=O)NCc1ccc(COc2cccc(F)c2)cc1 |  | 30 |  |  |  | inactive |  | 100 |  |  |  |  |  |  |  |  |  |  |  | 
27 | COC[C@@H](N)C(=O)NCc1ccc(OC(F)(F)F)cc1.Cl |  |  |  |  |  | inactive |  |  |  |  |  |  |  |  |  |  |  |  | 10 | 30
28 | CC(C)(C)[C@@H](N)C(=O)NCc1ccc(C(F)(F)F)cc1 | 0.25 | 24 | < 30 | 0.25 | 0.25 | inactive | 0.5 | 133 | > 30 |  |  |  |  | 5.5 |  |  |  |  |  | 
29 | CC(C)(C)[C@@H](N)C(=O)NCc1ccc(COc2cccc(F)c2)cc1 | 0.5 | 30 | 30 | 0.25 | 0.5 | inactive | 2 | 100 | > 30 |  | > 75 |  |  |  |  |  |  |  |  | 
30 | COc1ccc(CNC(=O)[C@H](N)C(C)C)cc1 | 0.5 | > 300 | > 30 | 0.25 | 0.5 | inactive | 0.25 | 30 | > 30 |  |  |  |  |  |  |  |  |  |  | 
